Data published in patent US20210228463A1, “COMPOSITION FOR FAT FORMATION INHIBITION AND BODY FAT REDUCTION, CONTAINING HYDRANGENOL AS ACTIVE INGREDIENT” (COSMAX BIO CO., LTD., priority 2019, published 2021).
Each block holds one compound with its values, some of them ahead of it.

How the values were obtained:
[1] = Effects of HG on liver and kidney (serum GOT, GPT, BUN); format: in vivo, mice
Method: (§1) To analyze in vivo anti-obesity efficacy of HG, animal models of obesity were prepared. 8-week-old male C57BL/6N mice (SPF grade, 20±2 g, Orient Bio) were set into 7 groups as follows, and 10 mice per each group were tested: as normal control groups, normal mice (con) with no high fat diet and no administration, and obese mice (HFD) with induction of obesity by 30% high fat diet and no administration, and as a positive control group, obese mice with oral administration of orlistat which is an anti-obesity agent. As experimental groups, obese mice with oral administration of HG of 20 mg/kg, 40 mg/kg, or 80 mg/kg, and normal mice with oral administration of HG of 80 mg/kg were used. Mice were administered with HG at the same time with induction of obesity, and HG was administered for 5 days per week for 12 weeks. A dark: light cycle was maintained at intervals of 12 hours: 12 hours, and mice were allowed to free access to water. To examine whether HG induced liver and kidney damage, glutamic oxalacetic transaminase (GOT), glutamic pyruvate transaminase (GPT), and blood urea nitrogen (BUN) were measured by serum analysis using a biochemical analyzer (AU480 Chemistry Analyzer, Beckman coulter, Calif., USA).

[2] = Body weight- and fat-reducing effects of WHS in obese mice; format: in vivo; conditions: obese mice (HFD)
Method: To analyze in vivo anti-obesity efficacy of WHS, animal models of obesity were first prepared. 8-week-old male C57BL/6N mice (specific-pathogen-free (SPF) grade, 20±2 g, Orient Bio) were set into 7 groups as follows, and 10 mice per each group were tested: as normal control groups, normal mice (con) with no high fat diet and no administration, and obese mice (HFD) with induction of obesity by 30% high fat diet and no administration, and as a positive control group, obese mice with oral administration of orlistat which is an anti-obesity agent. As experimental groups, obese mice with oral administration of WHS of 75 mg/kg, 150 mg/kg, or 300 mg/kg, and normal mice with oral administration of WHS of 300 mg/kg were used. Further, experiments were performed by dividing mice into those which were administered with WHS for 12 weeks at the same time with induction of obesity, and those which were administered with WHS after induction of obesity for 10 weeks. WHS was orally administered for 5 days per week during the administration period. A dark: light cycle was maintained at intervals of 12 hours: 12 hours, and mice were allowed to free access to water. […] In addition, images of a fat distribution and body fat contents of mice of each experimental group were measured by dual-energy X-ray absorptiometry in the last week of the animal test. […]

[3] = Changes of blood triglyceride and blood cholesterol by HG; format: in vivo, mice; conditions: blood
Method: as §1, with “analyze the effects of” for “examine whether”, “on blood triglyceride” for “induced liver and kidney damage, glutamic oxalacetic transaminase (GOT), glutamic pyruvate transaminase (GPT),”, “cholesterol, a hematological-biochemical test was performed” for “urea nitrogen (BUN) were measured by serum analysis”

[4] = Body weight- and fat-reducing effects of HG in obese mice; format: in vivo; conditions: obese mice (HFD); for changes in the body weight: oral administration at the same time with induction of obesity, 5 days per week for 12 weeks, FIG. 13; for body fat (dual-energy X-ray absorptiometry, fat weight): oral administration, 12 weeks, FIGS. 14 and 15
Method: To analyze in vivo anti-obesity efficacy of HG, animal models of obesity were prepared. 8-week-old male C57BL/6N mice (SPF grade, 20±2 g, Orient Bio) were set into 7 groups as follows, and 10 mice per each group were tested: as normal control groups, normal mice (con) with no high fat diet and no administration, and obese mice (HFD) with induction of obesity by 30% high fat diet and no administration, and as a positive control group, obese mice with oral administration of orlistat which is an anti-obesity agent. As experimental groups, obese mice with oral administration of HG of 20 mg/kg, 40 mg/kg, or 80 mg/kg, and normal mice with oral administration of HG of 80 mg/kg were used. Mice were administered with HG at the same time with induction of obesity, and HG was administered for 5 days per week for 12 weeks. A dark: light cycle was maintained at intervals of 12 hours: 12 hours, and mice were allowed to free access to water. An experiment was performed to analyze whether the body weight and fat of mice decreased when HG was administered. […] In addition, images of a fat distribution and body fat contents of mice of each experimental group were measured by dual-energy X-ray absorptiometry in the last week of the animal test. Each mice was sacrificed, and a visceral adipose tissue including epididymal fat was separated and a fat was weighed. The experimental results were tested for a significant difference between groups using a t-test in the Sigma plot statistical program (p#<0.05 vs normal control, p*<0.05, r<0.01, P***<0.001 vs obese group). As a result, it was confirmed that body fat was decreased in the positive control group and the HG-administered group (FIGS. 14 and 15).

[5] = serum, obese mice (HFD) + oral orlistat
[6] = obese mice (HFD) + oral orlistat
[7] = HG-administered group, Table 4 and FIG. 17
[8] = obese mice (HFD) + HG 20 mg/kg oral, 12 weeks
[9] = obese mice (HFD) + HG 40 mg/kg oral, 12 weeks
[10] = obese mice (HFD) + HG 80 mg/kg oral, 12 weeks

BUN [1, 5]: 19.89 mg/dL
GOT [1, 5]: 63 U/L
GPT [1, 5]: 17.6 U/L
SMILES: CCCCCCCCCCC[C@@H](C[C@@H]1OC(=O)[C@H]1CCCCCC)OC(=O)[C@H](CC(C)C)NC=O [Orlistat, orlistat]
changes in the body weight ([2]; oral administration at the same time with induction of obesity (12 weeks) or after induction of obesity (10 weeks), FIGS. 4 and 5): body weight-reducing effects were observed
body fat (dual-energy X-ray absorptiometry, fat weight) ([2]; oral administration at the same time with or after induction of obesity, FIGS. 6, 7, 8, and 9): decreased
CHOL [3, 6]: 115.63 mg/dL
HDL [3, 6]: 83.70 mg/dL
LDL [3, 6]: 8.60 mg/dL
TG [3, 6]: 76.40 mg/dL
changes in the body weight [4]: body weight-reducing effects were observed
body fat (dual-energy X-ray absorptiometry, fat weight) [4]: decreased

GOT, GPT and BUN, difference between 7 groups ([1]; mouse, in vivo): no significant difference
SMILES: O=C1OC(c2ccc(O)cc2)Cc2cccc(O)c21 (stereo not shown) [HG, 8-hydroxy-3-(4-hydroxyphenyl)-3,4-dihydroisochromen-1-one]
HDL level ([3]; HG-administered group, Table 4): no significant difference
triglyceride level ([3]; HG-administered group, Table 4): no significant difference
LDL [3, 7]: reduction
total cholesterol [3, 7]: reduction
CHOL ([3]; normal mice + HG 80 mg/kg oral): 96.20 mg/dL
HDL ([3]; normal mice + HG 80 mg/kg oral): 66.40 mg/dL
LDL ([3]; normal mice + HG 80 mg/kg oral): 5.70 mg/dL
TG ([3]; normal mice + HG 80 mg/kg oral): 80.10 mg/dL
CHOL [3, 8]: 126.78 mg/dL
HDL [3, 8]: 80.78 mg/dL
LDL [3, 8]: 7.78 mg/dL
TG [3, 8]: 74.63 mg/dL
CHOL [3, 9]: 112.56 mg/dL
HDL [3, 9]: 71.89 mg/dL
LDL [3, 9]: 7.38 mg/dL
TG [3, 9]: 58.89 mg/dL
CHOL [3, 10]: 110.14 mg/dL
HDL [3, 10]: 71.20 mg/dL
LDL [3, 10]: 7.13 mg/dL
TG [3, 10]: 63.78 mg/dL
changes in the body weight [4]: body weight-reducing effects were observed
body fat (dual-energy X-ray absorptiometry, fat weight) [4]: decreased
